In patent US7579487B2 (dated 2009):

| SMILES | melting point |
| --- | --- |
| CC(C)=C(NS(=O)(=O)c1ccc(C)cc1)C(=O)O | 188.5 to 189.5 °C |
| COc1ccc(S(=O)(=O)NC(C(=O)O)=C(C)C)cc1 | 162.5 to 163.5 °C |
| CC(C)=C(NS(=O)(=O)c1ccc(F)cc1)C(=O)O | 172 to 173 °C |
| CC(C)=C(NS(=O)(=O)Cc1ccccc1)C(=O)O | 194 to 195 °C |
| CC(C)=C(NS(=O)(=O)CCCc1ccccc1)C(=O)O | 104.5 to 106 °C |
| Cc1ccc(S(=O)(=O)NC(C(=O)O)=C2CCCCC2)cc1 | 221 to 222 °C |
| O=C(O)C(NS(=O)(=O)c1ccc(F)cc1)=C1CCCCC1 | 214 to 215 °C |
| C/C=C(/NS(=O)(=O)c1ccc(C)cc1)C(=O)O | 150.5 to 151.5 °C |
| Cc1ccc(S(=O)(=O)N/C(=C/C(C)C)C(=O)O)cc1 | 166.5 to 167.5 °C |
| COc1ccc(S(=O)(=O)NC(C(=O)O)C(C)C)cc1 (stereo not shown) | 116.5 to 117.5 °C |
| CC(C)[C@H](NS(=O)(=O)Cc1ccccc1)C(=O)O | 120 to 121.5 °C |
| CC(C)[C@H](NS(=O)(=O)CCCc1ccccc1)C(=O)O | 151 to 152 °C |
| Cc1ccc(S(=O)(=O)NC(C(=O)O)C2CCCCC2)cc1 (stereo not shown) | 182 to 184 °C |
| O=C(O)C(NS(=O)(=O)c1ccc(F)cc1)C1CCCCC1 (stereo not shown) | 143 to 145 °C |
| CCC(NS(=O)(=O)c1ccc(C)cc1)C(=O)O (stereo not shown) | 133.5 to 135.5 °C |
| Cc1ccc(S(=O)(=O)NC(CC(C)C)C(=O)O)cc1 (stereo not shown) | 122 to 123 °C |
